Test results reported in ChEMBL document CHEMBL1145870, “Triethylene tetraamine: a novel telomerase inhibitor” (Bioorg Med Chem Lett, 2003).
“And” between values parts separate entries of the source, which are not always exact repeats. Identical values can stand only once.

Legend:
[1] = system: HeLa; experiment: Inhibitory activity against HeLa cell line using 3-(4,5-dimethylthiazol-2-yl)-2,5-diphenyltetrazolium bromide (MTT, Sigma) assay.
[2] = Dose required to inhibit HLF cells by 50 percent; conditions: Homo sapiens, read-out: LD50

For `NCCNCCNCCN` [TRIENTINE], the IC50 [1] was 74.8 µM and 7.8 µM and the CC50 [2] was 3100 µM.
